Consider 16 compounds from US9605003B2, “Heterocyclic compounds and uses thereof” (Infinity Pharmaceuticals, Inc., priority 2011, dated 2017).

Structures can show the parent of a compound that is named as a salt.

One data set concerns NZB/W model. The conditions noted are these: prophylactic and therapeutic model; cited from earlier work.
Data set [1] has as its system phospho-AKT in SKOV-3 cells. In words: PI3Kα selective cellular assay, phospho-AKT in SKOV-3 cells. The data set is classed as cell-based. The following applies: Homo sapiens, SK-OV-3, SKOV-3 cell model. The text has this:
A compound's ability in selectively inhibiting PI3Kα can be assessed using SKOV-3 cells, i.e., human ovarian carcinoma cell line. Briefly, SKOV-3 cells, in which mutant PI3Kα is constitutively active, can be treated with test compounds. Test compounds' ability to inhibit AKT phosphorylation in SKOV-3 cells, therefore, is indicative of selective inhibition of PI3Kα. Thus, by monitoring the reduction of phospho-AKT in SKOV-3 cells (using for example, phospho-AKT antibodies), a compound's potential efficacy in selectively inhibiting PI3Kα can be assessed.
Certain compounds provided herein (e.g., Compounds 5, 38, 103, and 106) were tested in SKOV-3 cell model using procedures as described above.

Data set [2] concerns phospho-AKT in 786-O cells. The data set is described as follows: PI3Kβ selective cellular assay, phospho-AKT in 786-O cells. Format: cell-based. The conditions noted are these: Homo sapiens, 786-0, 786-O cell model. The text has this:
A compound's ability in selectively inhibiting PI3Kβ can be assessed using 786-O cells, i.e., human kidney carcinoma cell line. Briefly, 786-O cells, in which PI3Kβ is constitutively active, can be treated with test compounds. Test compounds' ability to inhibit AKT phosphorylation in 786-O cells, therefore, is indicative of selective inhibition of PI3Kβ. Thus, by monitoring the reduction of phospho-AKT in 786-O cells (using for example, phospho-AKT antibodies), a compound's potential efficacy in selectively inhibiting PI3Kβ can be assessed.
Certain compounds provided herein (e.g., Compounds 5, 38, 103, and 106) were tested in 786-O cell model using procedures as described above.

The subject of data set [3] is phospho-AKT in RAJI cells. The data set is described as follows: PI3Kδ selective cellular assay, phospho-AKT in anti-IgM stimulated RAJI cells. Format: cell-based. The following applies: Homo sapiens; RAJI cell model. From the text:
A compound's ability in selectively inhibiting PI3Kδ can be assessed using RAJI cells, i.e., B lymphocyte cells derived from lymphoma patients. Briefly, serum-starved RAJI cells are stimulated with anti-human IgM, thereby causing signaling through the B-cell receptors, as described in, for example, He et al., Leukemia Research (2009) 33: 798-802. B-cell receptor signaling is important for the activation, differentiation, and survival of B cells and certain B-cell derived cancers. Reduction of phospho-AKT is indicative of compounds that may inhibit B-cell proliferation and function in certain diseases. By monitoring the reduction of phospho-AKT in stimulated RAJI cells (using for example, phospho-AKT antibodies), a compound's potential efficacy in selectively inhibiting PI3Kδ can be assessed.
Certain compounds provided herein (e.g., Compounds 5, 38, 103, 105, 106, 107, 108, and 109) were tested in RAJI cell model using procedures as described above.

Data set [4] has as its system phospho-AKT in RAW 264.7 cells. In words: PI3Kγ selective cellular assay, phospho-AKT in C5a stimulated RAW 264.7 cells. Format: cell-based. The following applies: Mus musculus, RAW264.7, RAW 264.7 cell model. The text has this:
A compound's ability in selectively inhibiting PI3Kγ can be assessed using RAW264.7 macrophages. Briefly, serum-starved PAW264.7 cells are stimulated with a known GPCR agonist C5a. (See, e.g., Camps et al., Nature Medicine (2005) 11(9): 936-943). Cells can be treated with test compounds prior to, simultaneously with, or subsequent to the stimulation by C5a. RAW 264.7 cells respond to the complement component fragment C5a through activation of the C5a receptor, and the C5a receptor activates macrophages and induces cell migration. Test compounds' ability to inhibit C5a-mediated AKT phosphorylation is indicative of selective inhibition of PI3Kγ. Thus, by monitoring the reduction of phospho-AKT in stimulated RAW 264.7 cells (using for example, phospho-AKT antibodies), a compound's potential efficacy in selectively inhibiting PI3Kγ can be assessed.
Certain compounds provided herein (e.g., Compounds 5, 38, 103, 105, 106, 107, 108, and 109) were tested in RAW 264.7 cell model using procedures as described above.

Another data set concerns Balb/c splenic B cells. The data set is described as follows: B cell activation and proliferation assay (Alamar Blue). The data set is classed as cell-based. The conditions noted are these: Mus musculus. The procedure: The ability of one or more subject compounds to inhibit B cell activitation and proliferation is determined according to standard procedures known in the art. For example, an in vitro cellular proliferation assay is established that measures the metabolic activity of live cells. The assay is performed in a 96 well microtiter plate using Alamar Blue reduction. Balb/c splenic B cells are purified over a Ficoll-Paque™ PLUS gradient followed by magnetic cell separation using a MACS B cell Isolation Kit (Miletenyi). Cells are plated in 90 μl at 50,000 cells/well in B Cell Media (RPMI+10% FBS+Penn/Strep+50 μM bME+5 mM HEPES). A compound provided herein is diluted in B Cell Media and added in a 10 μl volume. Plates are incubated for 30 min at 37° C. and 5% CO2 (0.2% DMSO final concentration). A 50 μl B cell stimulation cocktail is then added containing either 10 μg/ml LPS or 5 μg/ml F(ab′)2 Donkey anti-mouse IgM plus 2 ng/ml recombinant mouse IL4 in B Cell Media. Plates are incubated for 72 hours at 37° C. and 5% CO2. A volume of 15 μL of Alamar Blue reagent is added to each well and plates are incubated for 5 hours at 37° C. and 5% CO2. Alamar Blue fluoresce is read at 560Ex/590Em, and IC50 or EC50 values are calculated using GraphPad Prism 5.
(Alamar Blue is a resazurin reagent that responds to reducing activity.)

For the next data set, the target named is T1, PI3Kβ (Homo sapiens, UniProt P42338).
T1 construct: purchased Millipore Corporation 14-603-K
The data set is described as follows: PI3 Kinase HTRF assay, PI3Kβ. The following applies: Between 1 μM and 10 μM; read-out: PI3K β IC50. The data set is classed as biochemical. From the text:
(§1) A PI3-Kinase HTRF® assay kit (cat No. 33-016) purchased from Millipore Corporation was used to screen compounds provided herein. This assay used specific, high affinity binding of the GRP1 pleckstrin homology (PH) domain to PIP3, the product of a Class 1A or 1B PI3 Kinase acting on its physiological substrate PIP2. During the detection phase of the assay, a complex was generated between the GST-tagged PH domain and biotinylated short chain PIP3. The biotinylated PIP3 and the GST-tagged PH domain recruited fluorophores (Streptavidin-Allophycocyanin and Europium-labeled anti-GST respectively) to form the fluorescence resonance energy transfer (FRET) architecture, generating a stable time-resolved FRET signal. The FRET complex was disrupted in a competitive manner by non-biotinylated PIP3, a product formed in the PI3 Kinase assay.
(§2) PI3 Kinase α, β, γ and δ activity was assayed using the PI3 Kinase HTRF® assay kit (catalogue No. 33-016) purchased from Millipore Corporation. Purified recombinant PI3Kα (catalogue No. 14-602-K), PI3Kβ (catalogue No. 14-603-K), PI3Kγ (catalogue No. 14-558-K) and PI3Kδ (catalogue No. 14-604-K) were obtained from Millipore Corporation. Purified recombinant PI3K enzyme was used to catalyze the phosphorylation of phosphatidylinositol 4,5-bisphosphate (PIP2 at 10 μM) to phosphatidylinositol 3,4,5-trisphosphate (PIP3) in the presence of 10 μM ATP. The assay was carried out in 384-well format and detected using a Perkin Elmer EnVision Xcite Multilabel Reader. Emission ratios were converted into percent inhibitions and imported into GraphPad Prism software. The concentration necessary to achieve inhibition of enzyme activity by 50% (IC50) was calculated using concentrations ranging from 20 μM to 0.1 nM (12-point curve). IC50 values were determined using a nonlinear regression model available in GraphPad Prism 5.

A further data set concerns the target T2, PI3Kγ (Homo sapiens, UniProt P48736).
T2 construct: purchased Millipore Corporation 14-558-K
The data set is described as follows: PI3 Kinase HTRF assay, PI3Kγ. The data set is classed as biochemical. The conditions noted are these: Between 1 μM and 10 μM; read-out: PI3K γ IC50.
Excerpt: as §1, §2
(In TR-FRET formats the signal depends on donor and acceptor labels being close together.)

A further data set deals with T3, PI3Kα (Homo sapiens, UniProt P42336).
T3 construct: purchased Millipore Corporation 14-602-K
T3 sequence (P42336 whole entry): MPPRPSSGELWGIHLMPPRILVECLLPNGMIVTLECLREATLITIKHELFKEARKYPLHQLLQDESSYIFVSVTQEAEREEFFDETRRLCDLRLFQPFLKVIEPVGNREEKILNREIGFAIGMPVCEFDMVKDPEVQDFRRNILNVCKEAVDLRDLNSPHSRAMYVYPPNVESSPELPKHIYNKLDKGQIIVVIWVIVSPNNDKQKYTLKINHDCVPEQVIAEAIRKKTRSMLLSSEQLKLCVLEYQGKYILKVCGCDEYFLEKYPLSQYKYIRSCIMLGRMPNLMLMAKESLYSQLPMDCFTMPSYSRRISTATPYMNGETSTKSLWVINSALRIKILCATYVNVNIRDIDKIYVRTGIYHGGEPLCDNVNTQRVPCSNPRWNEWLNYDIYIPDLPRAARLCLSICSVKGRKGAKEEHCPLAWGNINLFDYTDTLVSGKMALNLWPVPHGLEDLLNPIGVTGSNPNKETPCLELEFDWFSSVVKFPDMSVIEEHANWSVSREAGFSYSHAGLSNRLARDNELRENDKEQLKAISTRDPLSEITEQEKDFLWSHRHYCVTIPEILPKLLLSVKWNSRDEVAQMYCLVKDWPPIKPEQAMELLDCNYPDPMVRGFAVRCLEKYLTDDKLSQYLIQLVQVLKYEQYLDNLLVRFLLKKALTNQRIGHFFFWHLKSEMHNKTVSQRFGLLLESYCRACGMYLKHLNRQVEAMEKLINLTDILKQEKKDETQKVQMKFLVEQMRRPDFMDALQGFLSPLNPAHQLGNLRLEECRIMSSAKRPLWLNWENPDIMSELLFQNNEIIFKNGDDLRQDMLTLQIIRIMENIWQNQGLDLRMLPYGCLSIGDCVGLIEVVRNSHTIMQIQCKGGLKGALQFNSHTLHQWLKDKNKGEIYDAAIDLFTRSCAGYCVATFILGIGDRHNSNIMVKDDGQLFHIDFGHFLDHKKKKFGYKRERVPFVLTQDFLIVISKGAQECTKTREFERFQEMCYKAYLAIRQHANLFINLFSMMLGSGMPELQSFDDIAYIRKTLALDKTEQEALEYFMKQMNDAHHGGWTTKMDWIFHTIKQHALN
T3 sequence (P27986 whole entry partner): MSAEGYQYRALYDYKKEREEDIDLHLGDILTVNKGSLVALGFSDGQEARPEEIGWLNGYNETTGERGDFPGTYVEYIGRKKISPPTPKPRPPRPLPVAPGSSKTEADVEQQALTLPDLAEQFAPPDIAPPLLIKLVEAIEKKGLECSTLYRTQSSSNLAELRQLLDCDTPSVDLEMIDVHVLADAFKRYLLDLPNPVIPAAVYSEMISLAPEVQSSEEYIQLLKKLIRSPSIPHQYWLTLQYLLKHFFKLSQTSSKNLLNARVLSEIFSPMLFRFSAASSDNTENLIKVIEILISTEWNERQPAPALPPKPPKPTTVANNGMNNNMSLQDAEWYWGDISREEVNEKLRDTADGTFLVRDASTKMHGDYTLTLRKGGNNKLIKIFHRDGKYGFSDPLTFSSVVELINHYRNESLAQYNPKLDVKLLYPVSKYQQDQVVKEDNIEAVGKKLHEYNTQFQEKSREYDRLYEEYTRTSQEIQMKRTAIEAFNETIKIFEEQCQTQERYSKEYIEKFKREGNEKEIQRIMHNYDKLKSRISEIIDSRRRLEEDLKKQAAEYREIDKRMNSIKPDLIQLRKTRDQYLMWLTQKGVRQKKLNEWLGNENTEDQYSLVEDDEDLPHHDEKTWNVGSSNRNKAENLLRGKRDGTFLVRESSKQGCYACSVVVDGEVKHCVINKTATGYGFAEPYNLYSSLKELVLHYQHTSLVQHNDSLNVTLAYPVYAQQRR
In words: PI3 Kinase HTRF assay, PI3Kα. The data set is classed as biochemical. The conditions noted are these: Between 1 μM and 10 μM; read-out: PI3K α IC50.
Excerpt: as §1, §2

A further data set has as its target T4, PI3Kδ (Homo sapiens, UniProt O00329).
T4 construct: purchased Millipore Corporation 14-604-K
In words: PI3 Kinase HTRF assay, PI3Kδ. The conditions noted are these: Between 1 μM and 10 μM; read-out: PI3K δ IC50. Format: biochemical.
Excerpt: as §1, §2

The next data set relates to B6.Sle1z.Sle3z model. The conditions noted are these: cited from earlier work.
For data set [5] the following is noted: PBS pH 7.4, 37° C., 24 hours, 5 μM; cited from earlier work.
Data set [6] has as its system p190 transduced leukemic cells. The following applies: about 70 mg/kg twice daily; cited from earlier work.
The conditions of data set [7]: human plasma, 5 μM; cited from earlier work.
[8] abbreviates: range between 100 nM and 1 μM (bounds carry own units).

T4 sequence (O00329 whole entry): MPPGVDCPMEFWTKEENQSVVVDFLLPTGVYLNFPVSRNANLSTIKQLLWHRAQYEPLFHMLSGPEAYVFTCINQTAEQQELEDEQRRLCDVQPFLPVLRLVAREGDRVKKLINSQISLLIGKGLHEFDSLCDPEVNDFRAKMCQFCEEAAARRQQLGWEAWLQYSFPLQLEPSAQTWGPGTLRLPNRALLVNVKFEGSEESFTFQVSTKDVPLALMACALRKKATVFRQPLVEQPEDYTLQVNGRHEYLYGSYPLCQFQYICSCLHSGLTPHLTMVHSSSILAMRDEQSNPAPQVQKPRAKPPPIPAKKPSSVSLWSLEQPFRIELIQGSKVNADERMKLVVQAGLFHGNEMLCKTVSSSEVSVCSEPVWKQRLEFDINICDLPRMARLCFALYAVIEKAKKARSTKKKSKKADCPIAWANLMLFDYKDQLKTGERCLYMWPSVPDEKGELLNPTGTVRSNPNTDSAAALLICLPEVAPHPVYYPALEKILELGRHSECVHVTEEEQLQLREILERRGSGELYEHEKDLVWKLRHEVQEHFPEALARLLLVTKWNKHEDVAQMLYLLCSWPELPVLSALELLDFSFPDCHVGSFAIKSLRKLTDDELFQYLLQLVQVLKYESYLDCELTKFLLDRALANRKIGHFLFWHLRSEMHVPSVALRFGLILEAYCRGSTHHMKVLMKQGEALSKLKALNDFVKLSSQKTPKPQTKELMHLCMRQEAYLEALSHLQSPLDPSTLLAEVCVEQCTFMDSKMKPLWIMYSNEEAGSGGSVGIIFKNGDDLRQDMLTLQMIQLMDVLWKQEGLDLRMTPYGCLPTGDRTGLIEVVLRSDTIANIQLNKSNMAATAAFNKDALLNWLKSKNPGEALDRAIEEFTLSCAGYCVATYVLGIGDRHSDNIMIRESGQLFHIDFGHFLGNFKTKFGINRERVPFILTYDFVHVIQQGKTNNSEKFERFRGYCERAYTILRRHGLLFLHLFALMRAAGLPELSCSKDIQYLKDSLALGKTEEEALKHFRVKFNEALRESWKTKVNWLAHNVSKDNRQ
T4 sequence (P27986 whole entry partner): as the sequence (P27986 whole entry partner) above
T2 sequence (P48736 whole entry): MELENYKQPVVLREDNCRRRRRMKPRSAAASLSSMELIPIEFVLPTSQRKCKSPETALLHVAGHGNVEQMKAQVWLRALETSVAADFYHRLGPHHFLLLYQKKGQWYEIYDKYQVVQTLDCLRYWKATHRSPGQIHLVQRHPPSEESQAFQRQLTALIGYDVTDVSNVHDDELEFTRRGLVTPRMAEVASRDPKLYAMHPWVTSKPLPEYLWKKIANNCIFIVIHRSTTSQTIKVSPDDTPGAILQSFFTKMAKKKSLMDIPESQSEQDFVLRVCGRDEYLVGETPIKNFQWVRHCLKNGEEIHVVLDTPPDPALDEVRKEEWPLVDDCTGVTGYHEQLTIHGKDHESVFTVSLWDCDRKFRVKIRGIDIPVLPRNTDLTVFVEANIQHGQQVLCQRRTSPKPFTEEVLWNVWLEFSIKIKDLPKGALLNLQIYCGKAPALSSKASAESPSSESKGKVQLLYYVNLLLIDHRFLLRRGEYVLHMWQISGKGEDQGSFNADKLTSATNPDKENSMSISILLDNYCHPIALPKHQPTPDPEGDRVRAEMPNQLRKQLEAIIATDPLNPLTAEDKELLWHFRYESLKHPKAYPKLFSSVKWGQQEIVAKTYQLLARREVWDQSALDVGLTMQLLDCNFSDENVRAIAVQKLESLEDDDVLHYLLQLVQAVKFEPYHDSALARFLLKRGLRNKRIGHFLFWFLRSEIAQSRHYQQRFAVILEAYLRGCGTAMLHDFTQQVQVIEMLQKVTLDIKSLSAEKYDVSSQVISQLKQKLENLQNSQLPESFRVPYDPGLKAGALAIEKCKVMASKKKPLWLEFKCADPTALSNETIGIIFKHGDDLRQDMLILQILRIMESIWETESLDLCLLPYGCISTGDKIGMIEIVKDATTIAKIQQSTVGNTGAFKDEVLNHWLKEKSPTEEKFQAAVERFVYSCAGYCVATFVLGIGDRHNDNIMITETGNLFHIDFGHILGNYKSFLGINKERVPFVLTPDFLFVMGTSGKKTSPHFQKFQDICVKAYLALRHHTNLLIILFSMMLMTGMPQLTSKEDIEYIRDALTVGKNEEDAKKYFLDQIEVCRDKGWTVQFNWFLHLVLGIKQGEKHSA

Turning to `CC(C)C[C@H](NC(=O)[C@H](Cc1ccccc1)NC(=O)c1cnccn1)B(O)O` [Bortezimib, bortezomib], in the data set on NZB/W model, the “disease in NZB/W model” value is listed as “effective at blocking disease”.

`C[C@H](Nc1ncnc2scnc12)c1cc2cccc(-c3cnn(C)c3)c2c(=O)n1-c1ccccc1` [Compound 5]: the IC50 (usually the midpoint of a concentration-inhibition curve) in data set [1] (setting [8]) is 0.1 to 1 µM; in data set [2] it was 1 to 10 µM; in [3], < 0.1 µM; in data set [4], < 0.1 µM; at PI3Kβ, 1 to 10 µM. In addition, the EC50 (commonly the concentration that produces a half-maximal response) with Balb/c splenic B cells (Less than 100 nanoMolar) is < 0.1 µM.

`Cc1nsc2cc(C(C)Nc3ncnc4scnc34)n(-c3ccccc3)c(=O)c12` (centres unmarked) [Compound 12]: the EC50 in the data set on Balb/c splenic B cells (Less than 100 nanoMolar) was < 0.1 µM. The IC50 at PI3Kβ and on PI3Kγ was 1 to 10 µM each time.

As to `COc1ncc(-c2cccc3cc([C@H](C)Nc4ncnc5scnc45)n(-c4ccccc4)c(=O)c23)cn1` [Compound 38], the IC50 in data set [1] is 1 to 10 µM; in data set [2], 1 to 10 µM; in [3], < 0.1 µM; in [4] (setting [8]), 0.1 to 1 µM; on PI3Kα, 1 to 10 µM; at PI3Kβ, 1 to 10 µM. Moreover, the concentration giving a half-maximal response (EC50) with Balb/c splenic B cells (Less than 100 nanoMolar) is < 0.1 µM.

On to `C[C@H](Nc1ncnc2scnc12)c1cc2cccc(-c3cnc4c(c3)CCCC4)c2c(=O)n1-c1ccccc1` [Compound 59], for which the EC50 with Balb/c splenic B cells (Between 1 μM and 10 μM) was 1 to 10 µM. Also, the IC50 at PI3Kδ and at PI3Kγ was 1 to 10 µM throughout.

For the compound `Cc1nc2c(N[C@@H](C)c3cc4cccc(Cl)c4c(=O)n3-c3cccc(F)c3)ncnc2s1` [Compound 78], the IC50 on PI3Kδ is 1 to 10 µM.

On to `Cc1nc2c(N[C@@H](C)c3cc4cccc(-c5cnn(C)c5)c4c(=O)n3-c3ccccc3)ncnc2s1` [Compound 79], for which the IC50 on PI3Kδ and at PI3Kγ was 1 to 10 µM throughout.

As for `C[C@H](Nc1ncnc2scnc12)c1cc2cccc(-c3cnn(C)c3)c2c(=O)n1C` [Compound 82], in the data set on Balb/c splenic B cells (Between 100 nM and 1 μM), the EC50 was in the range of 0.1 to 1 µM. The IC50 on PI3Kα, at PI3Kβ and on PI3Kγ was 1 to 10 µM each time.

In the case of `C[C@H](Nc1ncnc2scnc12)c1cc2cccc(C(=O)O)c2c(=O)n1-c1ccccc1` [Compound 84], the EC50 in the data set with Balb/c splenic B cells (Between 100 nM and 1 μM) is 0.1 to 1 µM. The IC50 on PI3Kδ and on PI3Kγ was 1 to 10 µM each time.

For the compound `CC(C)n1c([C@H](C)Nc2ncnc3scnc23)cc2cccc(-c3ccc(=O)n(C)c3)c2c1=O` [Compound 103], the IC50 in data set [1] (setting [8]) was 0.1 to 1 µM; in data set [2] (setting [8]), 0.1 to 1 µM; in data set [3], < 0.1 µM; in [4] (setting [8]) it was 0.1 to 1 µM; at PI3Kα, 1 to 10 µM; at PI3Kβ, 1 to 10 µM.

`COc1ncc(-c2cccc3cc([C@H](C)Nc4ncnc5scnc45)n(-c4ccon4)c(=O)c23)cn1` [Compound 106]: the IC50 was 0.1 to 1 µM in data set [1] (setting [8]); 0.1 to 1 µM in [2] (setting [8]); < 0.1 µM in data set [3]; 1 to 10 µM in data set [4]; 1 to 10 µM at PI3Kα; 1 to 10 µM at PI3Kβ.

Consider `CO[C@H]1C[C@@H]2CC[C@@H](C)[C@@](O)(O2)C(=O)C(=O)N2CCCC[C@H]2C(=O)O[C@H]([C@H](C)C[C@@H]2CC[C@@H](OCCO)[C@H](OC)C2)CC(=O)[C@H](C)/C=C(\C)[C@@H](O)[C@@H](OC)C(=O)[C@H](C)C[C@H](C)/C=C/C=C/C=C/1C` [RAD001, everolimus], for which, in the data set on B6.Sle1z.Sle3z model, the lupus symptoms entry was “ameliorate lupus symptoms”.

As to `O=C(O)CCCc1ccc(N(CCCl)CCCl)cc1` [chlorambucil], the chemical stability result in data set [5] is listed as “largely hydrolyzed over the course of 24 hours”.

In the case of `Cc1ccc(NC(=O)c2ccc(CN3CCN(C)CC3)cc2)cc1Nc1nccc(-c2cccnc2)n1` [imatinib, Imatinib Mesylate], the leukemogenesis entry in data set [6] is “delay but not cure leukemogenesis”.

With `CC(C)[N+](C)(CCOC(=O)C1c2ccccc2Oc2ccccc21)C(C)C` [propantheline], the plasma stability result in [7] was “intermediate plasma stability”.

With `CCCOc1cc(N)ccc1C(=O)OCCN(CC)CC` [propoxycaine], the plasma stability entry in [7] is listed as “low plasma stability”.
